Experimental data: doi:10.1101/844506v1 (biorxiv, 2019)

Target: B8CYA8 (β-glucosidase from Halothermothrix orenii) (Halothermothrix orenii, UniProt B8CYA8)
Experiment: melting temperature shift
Type: binding
Conditions: 0.5 M glucose

B8CYA8 (β-glucosidase from Halothermothrix orenii), sequence (B8CYA8 1-451): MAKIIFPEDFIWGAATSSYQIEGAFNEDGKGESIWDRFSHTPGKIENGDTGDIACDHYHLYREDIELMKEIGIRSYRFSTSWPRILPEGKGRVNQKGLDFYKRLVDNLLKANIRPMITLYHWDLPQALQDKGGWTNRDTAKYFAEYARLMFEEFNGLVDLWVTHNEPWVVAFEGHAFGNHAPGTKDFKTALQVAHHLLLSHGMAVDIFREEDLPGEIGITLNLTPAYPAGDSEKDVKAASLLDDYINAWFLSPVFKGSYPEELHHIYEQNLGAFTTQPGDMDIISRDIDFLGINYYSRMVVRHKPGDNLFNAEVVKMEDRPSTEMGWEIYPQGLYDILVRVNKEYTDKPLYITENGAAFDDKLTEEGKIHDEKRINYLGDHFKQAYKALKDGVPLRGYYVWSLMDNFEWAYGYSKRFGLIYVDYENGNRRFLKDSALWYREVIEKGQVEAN

## OC[C@H]1OC(O)[C@H](O)[C@@H](O)[C@@H]1O (stereo partly shown) [glucose]
  increase in melting temperature: 4-5 °C
